# Experimental data from patent publication US20150274719A1, “AMINO-SUBSTITUTED IMIDAZO[1,2-A]PYRIDINECARBOXAMIDES AND THEIR USE” (BAYER PHARMA AKTIENGESELLSCHAFT, priority 2012, published 2015).
# Molecular target: T1, recombinant guanylate cyclase reporter cell line (Rattus norvegicus, UniProt P19686+P20595)
# T1 construct: expressed in transfected cells; host or cells: recombinant reporter cell line
# T1 sequence (P19686 1-690): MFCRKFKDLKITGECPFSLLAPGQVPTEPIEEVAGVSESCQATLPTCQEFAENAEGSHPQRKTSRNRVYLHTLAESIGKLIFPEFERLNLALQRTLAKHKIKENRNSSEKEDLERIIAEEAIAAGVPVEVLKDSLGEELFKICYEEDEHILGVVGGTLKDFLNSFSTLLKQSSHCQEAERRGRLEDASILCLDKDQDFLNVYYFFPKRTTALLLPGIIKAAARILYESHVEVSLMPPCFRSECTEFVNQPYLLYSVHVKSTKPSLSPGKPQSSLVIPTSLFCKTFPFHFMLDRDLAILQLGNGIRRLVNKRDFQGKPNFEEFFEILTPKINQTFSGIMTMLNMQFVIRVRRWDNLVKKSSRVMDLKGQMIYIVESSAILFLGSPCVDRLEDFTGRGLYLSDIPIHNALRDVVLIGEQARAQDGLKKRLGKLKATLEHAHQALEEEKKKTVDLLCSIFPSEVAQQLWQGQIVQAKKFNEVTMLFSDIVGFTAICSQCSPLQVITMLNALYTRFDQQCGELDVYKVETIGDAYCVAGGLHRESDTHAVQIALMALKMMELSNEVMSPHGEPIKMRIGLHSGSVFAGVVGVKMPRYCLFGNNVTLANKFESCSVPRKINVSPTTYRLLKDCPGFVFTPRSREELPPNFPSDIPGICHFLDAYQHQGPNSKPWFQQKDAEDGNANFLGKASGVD
# T1 sequence (P20595 1-619): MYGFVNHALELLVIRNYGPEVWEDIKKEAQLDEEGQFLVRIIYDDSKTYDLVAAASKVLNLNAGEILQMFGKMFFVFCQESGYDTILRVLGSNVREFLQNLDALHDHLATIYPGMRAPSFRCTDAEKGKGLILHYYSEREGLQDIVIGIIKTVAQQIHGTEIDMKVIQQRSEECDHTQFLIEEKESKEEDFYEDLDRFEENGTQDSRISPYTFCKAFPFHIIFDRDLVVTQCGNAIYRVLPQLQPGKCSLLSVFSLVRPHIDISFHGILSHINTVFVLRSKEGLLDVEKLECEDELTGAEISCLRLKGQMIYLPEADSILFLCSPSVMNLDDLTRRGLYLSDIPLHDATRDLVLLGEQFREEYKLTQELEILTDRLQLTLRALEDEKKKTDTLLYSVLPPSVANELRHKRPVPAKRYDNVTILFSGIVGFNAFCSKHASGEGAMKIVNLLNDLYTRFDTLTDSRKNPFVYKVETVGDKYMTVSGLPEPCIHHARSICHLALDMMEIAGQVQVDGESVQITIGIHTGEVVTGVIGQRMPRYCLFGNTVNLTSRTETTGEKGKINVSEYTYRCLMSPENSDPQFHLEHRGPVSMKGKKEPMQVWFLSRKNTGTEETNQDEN
# Assay: Action on recombinant guanylate cyclase reporter cell line
# Type: cell-based
# Conditions: in some cases mean values from individual determinations
# Experimental: B-2. Action on Recombinant Guanylate Cyclase Reporter Cell Line
# The cellular action of the compounds according to the invention is determined on a recombinant guanylate cyclase reporter cell line, as described in F. Wunder et al., Anal. Biochem. 339, 104-112 (2005).
# Representative MEC values (MEC=minimal effective concentration) for the compounds according to the invention are shown in the following table (in some cases as mean values obtained from individual determinations): […]
row,Compound,MEC (minimal effective concentration)
1,"Cc1nc2c(OCc3c(F)cccc3F)cccn2c1C(=O)NCC(N)C(F)(F)C(F)F (racemic) [Example 230, rac-N-(2-Amino-3,3,4,4-tetrafluorobutyl)-8-[(2,6-difluorobenzyl)oxy]-2-methylimidazo[1,2-a]-pyridine-3-carboxamide]",1.00 µM
2,"Cc1cc(OCCC(C)C)c2nc(C)c(C(=O)NCC(C)(N)CC(C)C)n2c1 (racemic) [Example 249, rac-N-(2-Amino-2,4-dimethylpentyl)-2,6-dimethyl-8-(3-methylbutoxyl)imidazo[1,2-a]pyridine-3-carboxamide]",1.00 µM
3,"Cc1nc2c(OCc3c(F)cccc3F)cccn2c1C(=O)NCC1CCc2ccccc2N1 (racemic) [Example 250, rac-8-[(2,6-Difluorobenzyl)oxy]-2-methyl-N-(1,2,3,4-tetrahydroquinolin-2-ylmethyl)imidazo[1,2-a]pyridine-3-carboxamide]",1.00 µM
4,"Cc1cc(OCCC(C(F)(F)F)C(F)(F)F)c2nc(C)c(C(=O)NCC(C)(N)CC(C)C)n2c1 (racemic) [Example 258, rac-N-(2-Amino-2,4-dimethylpentyl)-2,6-dimethyl-8-[4,4,4-trifluoro-3-(trifluoromethyl)butoxy]-imidazo[1,2-a]pyridine-3-carboxamide]",1.00 µM
5,"Cc1cc(OCc2c(F)cccc2F)c2nc(C)c(C(=O)NCC(C)(N)CCOCc3ccccc3)n2c1 (racemic) [Example 262, rac-N-[2-Amino-4-(benzyloxy)-2-methylbutyl]-8-[(2,6-difluorobenzyl)oxy]-2,6-dimethylimidazo-[1,2-a]pyridine-3-carboxamide]",0.10 µM
6,"Cc1nc2c(OCc3c(F)cccc3F)cccn2c1C(=O)NCC(C)(N)COCc1ccccc1 (racemic) [Example 263, rac-N-[2-amino-3-(benzyloxy)-2-methylpropyl]-8-[(2,6-difluorobenzyl)oxy]-2-methylimidazo[1,2-a]pyridine-3-carboxamide]",1.00 µM
7,"Cc1nc2c(OCc3c(F)cccc3F)cccn2c1C(=O)NCC(C)(N)CCOCc1ccccc1 (racemic) [Example 264, rac-N-[2-amino-4-(benzyloxy)-2-methylbutyl]-8-[(2,6-difluorobenzyl)oxy]-2-methylimidazo[1,2-a]pyridine-3-carboxamide]",0.03 µM
8,"Cc1nc2c(OCc3c(F)cccc3F)cccn2c1C(=O)NCC(C)(N)CO (racemic) [Example 273, rac-N-(2-Amino-3-hydroxy-2-methylpropyl)-8-[(2,6-difluorobenzyl)oxy]-2-methylimidazo[1,2-a]-pyridine-3-carboxamide]",1.00 µM
9,"CCCC(C)(N)CNC(=O)c1c(C)nc2c(OCc3c(F)cccc3F)c(F)ccn12 (racemic) [Example 277, rac-N-(2-Amino-2-methylpentyl)-8-[(2,6-difluorobenzyl)oxy]-7-fluoro-2-methylimidazo[1,2-a]-pyridine-3-carboxamide]",1.00 µM

# Next, values leading:
row,MEC (minimal effective concentration),Compound
1,0.30 µM,"Cc1nc2c(OCc3c(F)cccc3F)cc(Cl)cn2c1C(=O)NCC(C)(N)CC(C)C (racemic) [Example 225, rac-N-(2-Amino-2,4-dimethylpentyl)-6-chloro-8-[(2,6-difluorobenzyl)oxy]-2-methylimidazo[1,2-a]pyridine-3-carboxamide]"
2,0.10 µM,"CCCC(C)(N)CNC(=O)c1c(C)nc2c(OCc3c(F)cccc3F)cc(C)cn12 (racemic) [Example 232, rac-N-(2-Amino-2-methylpentyl)-8-[(2,6-difluorobenzyl)oxy]-2,6-dimethylimidazo[1,2-a]pyridine-3-carboxamide]"
3,0.30 µM,"Cc1cc(OCc2c(F)cccc2F)c2nc(C)c(C(=O)NCC3CCc4ccccc4N3)n2c1 (racemic) [Example 235, rac-8-[(2,6-Difluorobenzyl)oxy]-2,6-dimethyl-N-(1,2,3,4-tetrahydroquinolin-2-ylmethyl)imidazo-[1,2-a]pyridine-3-carboxamide]"
4,0.30 µM,"Cc1nc2c(OCc3c(F)cccc3F)cc(Cl)cn2c1C(=O)NCC(C)(N)C(F)(F)F (racemic) [Example 236, rac-N-(2-Amino-3,3,3-trifluoro-2-methylpropyl)-6-chloro-8-[(2,6-difluorobenzyl)oxy]-2-methyl-imidazo[1,2-a]pyridine-3-carboxamide]"
5,0.30 µM,"Cc1cc(OCc2c(F)cccc2F)c2nc(C)c(C(=O)NCC(C)(N)C(F)(F)F)n2c1 (racemic) [Example 239, rac-N-(2-Amino-3,3,3-trifluoro-2-methylpropyl)-8-[(2,6-difluorobenzyl)oxy]-2,6-dimethyl-imidazo[1,2-a]pyridine-3-carboxamide]"
6,0.30 µM,"CCCC(C)(N)CNC(=O)c1c(C)nc2c(OCc3c(F)cccc3F)cc(Cl)cn12 (racemic) [Example 244, rac-N-(2-Amino-2-methylpentyl)-6-chloro-8-[(2,6-difluorobenzyl)oxy]-2-methylimidazo[1,2-a]-pyridine-3-carboxamide]"
7,0.30 µM,"CCC(C)(N)CNC(=O)c1c(C)nc2c(OCc3c(F)cccc3F)cccn12 (racemic) [Example 254, rac-N-(2-Amino-2-methylbutyl)-8-[(2,6-difluorobenzyl)oxy]-2-methylimidazo[1,2-a]pyridine-3-carboxamide]"
8,0.03 µM,"Cc1cc(OCc2c(F)cccc2F)c2nc(C)c(C(=O)NCC(C)(N)C3CC3)n2c1 (racemic) [Example 259, rac-N-(2-Amino-2-cyclopropylpropyl)-8-[(2,6-difluorobenzyl)oxy]-2,6-dimethylimidazo[1,2-a]-pyridine-3-carboxamide]"
9,0.30 µM,"Cc1cc(OCc2c(F)cccc2F)c2nc(C)c(C(=O)NCC(C)(N)COCc3ccccc3)n2c1 (racemic) [Example 265, rac-N-[2-amino-3-(benzyloxy)-2-methylpropyl]-8-[(2,6-difluorobenzyl)oxy]-2,6-dimethylimidazo[1,2-a]pyridine-3-carboxamide]"
10,1.00 µM,"Cc1cc(OCc2c(F)cccc2F)c2nc(C)c(C(=O)NCC(C)(N)CCO)n2c1 (racemic) [Example 270, rac-N-(2-Amino-4-hydroxy-2-methylbutyl)-8-[(2,6-difluorobenzyl)oxy]-2,6-dimethylimidazo[1,2-a]pyridine-3-carboxamide]"
11,0.03 µM,"CCCC(C)(N)CNC(=O)c1c(C)nc2c(OCc3c(F)ccc(F)c3F)cc(C)cn12 (racemic) [Example 293, rac-N-(2-amino-2-methylpentyl)-2,6-dimethyl-8-[(2,3,6-trifluorobenzyl)oxy]imidazo[1,2-a]pyridine-3-carboxamide]"
12,0.10 µM,"Cc1cc(OCc2c(F)cccc2F)c2nc(C)c(C(=O)NCC(C)(N)Cc3ccc(F)cc3)n2c1 (racemic) [Example 296, rac-N-[2-amino-3-(4-fluorophenyl)-2-methylpropyl]-8-[(2,6-difluorobenzyl)oxy]-2,6-dimethylimidazo[1,2-a]pyridine-3-carboxamide]"
